From US20210321649A1, “METHOD FOR DETECTING MISHANDLING AND MISUSE OF FOOD PRODUCTS” (SECURITY MATTERS LTD., priority 2016, published 2021) come the findings set out here.

A short description of this data set: Solubility of marking compounds in ethanol and water (Table 1). The note with it: for Solubility in Ethanol: solvent ethanol; for Solubility in water: solvent water.

Regarding Vitamin B12, the “Solubility in Ethanol” value was “Soluble” and the Solubility in water result is recorded as “Soluble”.

For the substance “Copper complexes chlorophylls [Copper complexes chlorophylls (E141)]”, the “Solubility in Ethanol” value is listed as “Soluble” and the Solubility in water entry is given as “Insoluble”.
